What was measured:
[1] = Cytotoxicity (CellTiter 96 Aqueous Non-Radioactive Cell Proliferation Assay); assay type: cell-based; settings: human, Huh7 cells
Method: Novel antibacterial peptidyl tRNA hydrolase inhibitors were identified using the MIC assay (inhibition ranged from 32-100%). The inhibitors were also bacteria specific, as evidenced by the low cytotoxicity observed for the human Huh7 cells (FIG. 4). Cytotoxicity was determined according to manufacturer's directions (CellTiter 96 Aqueous Non-Radioactive Cell Proliferation Assay, Promega).
Further data for representative compounds is set forth in Table 1 (MIC and cytotoxicity). Compounds were tested against S. aureus (ATCC 29213) and E. coli (BAS849—permeable) in the MIC assays. Certain compounds were also tested against other bacteria, including S. epidermis (ATCC 12228), E. faecium (ATCC 49624), and E. faecalis (ATCC 29212). Cytotoxicity was determined using Hu7 cells and Hep G2 cells. The MIC and cytotoxicity assays were performed as described above.

Row | Structure (SMILES) | CC50 [1] | melting point
1 | Cc1coc(N2C(=O)C(O)=C(C(=O)c3cc4ccccc4o3)C2c2ccc(OCc3ccccc3)cc2)n1 (centres unmarked) [Compound 58] | > 94 µM | 169 to 171 °C
2 | CCOc1cc(C2C(C(=O)c3cc4ccccc4o3)=C(O)C(=O)N2c2nc(C)c(C(C)=O)s2)ccc1O (centres unmarked) [Compound 13] | 59.8 µM | –
3 | CCOc1cc(C2C(C(=O)c3cc4ccccc4o3)=C(O)C(=O)N2c2nnc(SCc3ccccc3F)s2)ccc1O (centres unmarked) [Compound 3] | > 83 µM | –
4 | CCOC(=O)c1sc(N2C(=O)C(O)=C(C(=O)c3ccc(C)cc3)C2c2cccs2)nc1C (centres unmarked) [Compound 28] | 89.1 µM | –
5 | CCc1ccc2nc(N3C(=O)C(O)=C(C(=O)c4ccccc4)C3c3cccs3)sc2c1 (centres unmarked) [Compound 118] | 10.8 µM | –
6 | COc1cc(C2C(C(=O)c3cc4ccccc4o3)=C(O)C(=O)N2c2nnc(C)s2)ccc1OCc1ccccc1 (centres unmarked) [Compound 9] | > 90 µM | –
7 | Cc1nc(C)c(C(=O)C2=C(O)C(=O)N(c3nc4ccc(Cl)cc4s3)C2c2cccs2)s1 (centres unmarked) [Compound 49] | > 111 µM | –
8 | CC(=O)c1sc(N2C(=O)C(O)=C(C(=O)c3cc4ccccc4o3)C2c2ccc(-c3ccccc3)cc2)nc1C (centres unmarked) [Compound 55] | 42.9 µM | 226 to 228 °C
9 | CCc1ccc2nc(N3C(=O)C(O)=C(C(=O)c4ccccc4)C3c3ccco3)sc2c1 (centres unmarked) [Compound 119] | 10.8 µM | –
10 | O=C(C1=C(O)C(=O)N(c2nccs2)C1c1ccc(OCc2ccccc2)cc1)c1cc2ccccc2o1 (centres unmarked) [Compound 53] | > 98 µM | 193 to 195 °C
11 | Cc1cnc(N2C(=O)C(O)=C(C(=O)c3cc4ccccc4o3)C2c2ccc(OCc3ccccc3)cc2)s1 (centres unmarked) [Compound 50] | 82 µM | 241 to 243 °C
12 | CC(=O)c1sc(N2C(=O)C(O)=C(C(=O)c3cc4ccccc4o3)C2c2ccc(Oc3ccccc3)cc2)nc1C (centres unmarked) [Compound 56] | > 984 µM | 251 to 253 °C
13 | Cc1nnc(N2C(=O)C(O)=C(C(=O)c3ccc(OC(C)C)cc3)C2c2ccco2)s1 (centres unmarked) [Compound 33] | > 110 µM | –
14 | CCCCCOc1ccc(C2C(C(=O)c3cc4ccccc4o3)=C(O)C(=O)N2c2nc(C)c(C(C)=O)s2)cc1OC (centres unmarked) [Compound 14] | 74.2 µM | –
15 | COc1ccc(C(=O)C2=C(O)C(=O)N(c3nccs3)C2c2ccc(Cl)cc2)cc1C (centres unmarked) [Compound 44] | 51.5 µM | –
16 | COc1cc(C2C(C(=O)c3cc4ccccc4o3)=C(O)C(=O)N2c2nc(C)c(C(C)=O)s2)ccc1OCc1ccccc1 (centres unmarked) [Compound 11] | > 84 µM | –
17 | COC(=O)c1sc(N2C(=O)C(O)=C(C(=O)c3ccc(F)cc3)C2c2ccc(F)cc2)nc1C (centres unmarked) [Compound 31] | 46.5 µM | –
18 | CC(=O)c1sc(N2C(=O)C(O)=C(C(=O)c3cc4ccccc4o3)C2c2ccc(OCc3ccccc3)cc2)nc1C (centres unmarked) [Compound 10] | > 89 µM | 195 to 197 °C
19 | CCOc1cc(C2C(C(=O)c3cc4ccccc4o3)=C(O)C(=O)N2c2nc3c(C)cc(C)cc3s2)ccc1O (centres unmarked) [Compound 4] | 53.4 µM | –
20 | O=C(C1=C(O)C(=O)N(c2nncs2)C1c1ccc(OCc2ccccc2)cc1)c1cc2ccccc2o1 (centres unmarked) [Compound 52] | > 90 µM | 150 to 154 °C
21 | Cc1cc(C)c2nc(N3C(=O)C(O)=C(C(=O)c4ccc5c(c4)OCCO5)C3c3cccnc3)sc2c1 (centres unmarked) [Compound 126] | 27.4 µM | –
22 | CC(=O)C1=C(O)C(=O)N(c2nccs2)C1c1ccccc1 (centres unmarked) [Compound 22] | 29.7 µM | –

Row | Structure (SMILES) | CC50 [1] | melting point
23 | CCOC(=O)c1sc(N2C(=O)C(O)=C(C(=O)c3ccco3)C2c2ccco2)nc1C (centres unmarked) [Compound 45] | 96.2 µM | –
24 | CCOc1cc(C2C(C(=O)c3cc4ccccc4o3)=C(O)C(=O)N2c2nnc(SCc3cccc4ccccc34)s2)ccc1O (centres unmarked) [Compound 2] | > 79 µM | –
25 | CCOC(=O)c1sc(N2C(=O)C(O)=C(C(=O)c3ccc(F)cc3)C2c2cccs2)nc1C (centres unmarked) [Compound 40] | 62.9 µM | –
26 | CCOc1cc(C2C(C(=O)c3cc4ccccc4o3)=C(O)C(=O)N2c2nnc(SCc3ccccc3)s2)ccc1O (centres unmarked) [Compound 7] | > 85 µM | –
27 | O=C(C1=C(O)C(=O)N(c2nnc(SCc3ccc(F)cc3)s2)C1c1cccc(O)c1)c1cc2ccccc2o1 (centres unmarked) [Compound 15] | > 89 µM | –
28 | Cc1ccc2nc(N3C(=O)C(O)=C(C(=O)c4cc5ccccc5o4)C3c3cccc(O)c3)sc2c1 (centres unmarked) [Compound 8] | 80.1 µM | –
29 | CCCCOc1ccc(C2C(C(=O)c3cc4ccccc4o3)=C(O)C(=O)N2c2nc(C)c(C(C)=O)s2)cc1 (centres unmarked) [Compound 57] | > 91 µM | 186 to 188 °C
30 | CC(=O)c1sc(N2C(=O)C(O)=C(C(=O)c3cc4ccccc4o3)C2c2ccccc2)nc1C (centres unmarked) [Compound 54] | 78.5 µM | 205 to 208 °C
31 | O=C(C1=C(O)C(=O)N(c2nnc(SCc3ccc(Cl)cc3)s2)C1c1cccc(O)c1)c1cc2ccccc2o1 (centres unmarked) [Compound 12] | > 87 µM | –
32 | CCc1ccc2nc(N3C(=O)C(O)=C(C(=O)c4ccco4)C3c3cccs3)sc2c1 (centres unmarked) [Compound 122] | 58.2 µM | –
33 | O=C(C1=C(O)C(=O)N(c2nc3ccccc3s2)C1c1ccc(OCc2ccccc2)cc1)c1cc2ccccc2o1 (centres unmarked) [Compound 51] | 82.3 µM | 213 to 214 °C
34 | Cc1ccc(C2C(C(=O)c3ccc(Cl)cc3)=C(O)C(=O)N2c2nccs2)cc1 (centres unmarked) [Compound 59] | 60.5 µM | –
35 | CCN(CC)c1ccc(C2C(C(=O)c3ccc(C)o3)=C(O)C(=O)N2c2nc3ccc(F)cc3s2)cc1 (centres unmarked) [Compound 615] | – | 209 to 212 °C
36 | COc1ccc2nc(N3C(=O)C(O)=C(C(=O)c4ccc(C)o4)C3c3ccccc3F)sc2c1 (centres unmarked) [Compound 151] | – | 268 to 269 °C
37 | CCOc1ccc2nc(N3C(=O)C(O)=C(C(=O)c4ccc(C)o4)C3c3ccc4ccccc4n3)sc2c1 (centres unmarked) [Compound 252] | – | 260 to 261 °C
38 | Cc1ccc(C(=O)C2=C(O)C(=O)N(c3nc4ccc(F)cc4s3)C2c2ccc(Oc3ccccc3)cc2)o1 (centres unmarked) [Compound 468] | – | 172 to 173 °C
39 | COC1=C(C(C)=O)C(c2ccccc2F)N(c2nc3ccc(Cl)cc3s2)C1=O (centres unmarked) [Compound 430] | – | 235 to 236 °C
40 | COCCOc1ccc(CCC(=O)C2=C(O)C(=O)N(c3nc4c(Cl)cccc4s3)C2c2ccc(F)cc2)cc1 (centres unmarked) [Compound 578] | – | 182 to 183 °C
41 | CC(=O)C1=C(O)C(=O)N(c2nc3ccc(Cl)cc3s2)C1c1ccccc1F (centres unmarked) [Compound 429] | – | 255 to 256 °C
42 | CCOC(=O)CCC(=O)C1=C(O)C(=O)N(c2nc3ccc(Cl)cc3s2)C1c1ccc(F)cc1 (centres unmarked) [Compound 494] | – | 224 to 225 °C
43 | O=C(COc1ccccc1Cl)C1=C(O)C(=O)N(c2nc3c(Cl)cccc3s2)C1c1ccc(F)cc1 (centres unmarked) [Compound 460] | – | 143 to 145 °C

Reference: patent US20110130397A1, “PYRROLINONE COMPOUNDS AS INHIBITORS OF BACTERIAL PEPTIDYL TRNA HYDROLASE AND USES THEREOF” (priority 2006, published 2011)
